Read-outs that look alike come from different tables or passages of the source.
What was measured:
[1] = system: K562-GEM human promyelocytic leukemia, gemcitabin resistant; assay: MTT cytotoxicity assay, K562-GEM; format: cell-based; conditions: 72 hours, read-out: TCS50
Excerpt: (§1) One of the parameters used as the basis for colorimetric assays is the metabolic activity of viable cells. For example, a microtiter assay which uses the tetrazolium salt MTT is now widely used to quantitate cell proliferation and cytotoxicity [Hajdúch M, Mihál V, Minarík J, Fáber E, Safárová M, Weigl E, Antálek P.: Cytotechnology, 1996, 19, 243–245]. For instance, this assay is used in drug screening programs and in chemosensitivity testing. Because tetrazolium salts are cleaved only by metabolically active cells, these assays exclusively detect viable cells. In the case of the MTT assay, yellow soluble tetrazolium salt is reduced to a coloured water-insoluble formazan salt. After it is solubilized, the formazan formed can easily and rapidly be quantified in a conventional ELISA plate reader at 570 nm (maximum absorbancy). The quantity of reduced formazan corresponds to the number of vital cells in the culture. […]
(§2) The cell suspensions that were prepared and diluted according to the particular cell type and the expected target cell density (2,500–30,000 cells per well based on cell growth characteristics) were added by pipette (80 μl) into 96/well microtiter plates. […] Usually, test compounds were evaluated at six 4-fold dilutions. […] The tumour cell survival (TCS) was calculated using the following equitation: TCS=(ODdrug exposed well/mean ODcontrol wells)×100%. […]

[2] = system: OVCAR-3 human ovarian cancer; assay: MTT cytotoxicity assay, OVCAR-3; format: cell-based; conditions: 72 hours, read-out: TCS50
Excerpt: as §1, §2

[3] = system: MDA-MB-238 human breast cancer, estrogen independent, p53mut/mut; assay: MTT cytotoxicity assay, MDA-MB-238; format: cell-based; conditions: 72 hours, read-out: TCS50
Excerpt: as §1, §2

[4] = system: CEM human T-lymphoblastic leukemia; assay: MTT cytotoxicity screening assay, CEM; format: cell-based
Excerpt: One of the parameters used as the basis for colorimetric assays is the metabolic activity of viable cells. For example, a microtiter assay which uses the tetrazolium salt MTT is now widely used to quantitate cell proliferation and cytotoxicity [Hajdúch M, Mihál V, Minarík J, Fáber E, Safárová M, Weigl E, Antálek P.: Cytotechnology, 1996, 19, 243–245]. For instance, this assay is used in drug screening programs and in chemosensitivity testing. Because tetrazolium salts are cleaved only by metabolically active cells, these assays exclusively detect viable cells. In the case of the MTT assay, yellow soluble tetrazolium salt is reduced to a coloured water-insoluble formazan salt. After it is solubilized, the formazan formed can easily and rapidly be quantified in a conventional ELISA plate reader at 570 nm (maximum absorbancy). The quantity of reduced formazan corresponds to the number of vital cells in the culture.
Human T-lymphoblastic leukaemia cell line CEM was used for routine screening of these compounds. […] The cells were maintained in Nunc/Corning 80 cm^2 plastic tissue culture flasks and cultured in cell culture medium (DMEM with 5 g/l glucose, 2 mM glutamine, 100 U/ml penicillin, 100 μg/ml streptomycin, 10% foetal calf serum and sodium bicarbonate). Individual compounds were dissolved in 10% diiethylsulfoxide/saline, pH 8.0.
The cell suspensions that were prepared and diluted according to the particular cell type and the expected target cell density (2,500–30,000 cells per well based on cell growth characteristics) were added by pipette (80 μl) into 96/well microtiter plates. Inoculates were allowed a pre-incubation period of 24 hours at 37° C. and 5% CO2 for stabilisation. Four-fold dilutions of the intended test concentration were added at time zero in 20 μl aliquots to the microtiter plate wells. Usually, test compounds were evaluated at six 4-fold dilutions. In routine testing, the highest well concentration was 250 μM, but it may differ, depending on the agent. All drug concentrations were examined in duplicate. Incubations of cells with the test compounds lasted for 72 hours at 37° C., in 5% CO2 atmosphere and 100% humidity. At the end of the incubation period, the cells were assayed by using the MTT assay. […] After this incubation period, formazan was solubilized by the addition of 100 μl/well of 10% SDS in water (pH=5.5) followed by further incubation at 37° C. overnight The optical density (OD) was measured at 540 nm with the Labsystem iEMS Reader MF(UK). The tumour cell survival (TCS) was calculated using the following equitation: TCS=(ODdrug exposed well/mean ODcontrol wells)×100%. The TCS50 value, the drug concentration lethal to 50% of the tumour cells, was calculated from the obtained dose response curves. […]

[5] = system: B16 mouse melanoma; assay: MTT cytotoxicity assay, B16; format: cell-based; conditions: 72 hours, read-out: TCS50
Excerpt: as §1, §2

[6] = system: U87MG human glioblastoma; assay: MTT cytotoxicity assay, U87MG; format: cell-based; conditions: 72 hours, read-out: TCS50
Excerpt: as §1, §2

[7] = system: CEM-VCR 1/F3 human T-lymphoblastic leukemia, vincristin resistant; assay: MTT cytotoxicity assay, CEM-VCR 1/F3; format: cell-based; conditions: 72 hours, read-out: TCS50
Excerpt: as §1, §2

[8] = system: HepG2 human hepatocellular carcinoma; assay: MTT cytotoxicity assay, HepG2; format: cell-based; conditions: 72 hours, read-out: TCS50
Excerpt: as §1, §2

[9] = system: NIH3T3 mouse immortalised fibroblasts; assay: MTT cytotoxicity assay, NIH3T3; format: cell-based; conditions: 72 hours, read-out: TCS50
Excerpt: as §1, §2

[10] = system: Rb protein; assay: Rb protein phosphorylation state, SDS-PAGE/Western blot in CEM cells; format: cell-based, human
Description: Since Rb protein contains multiple phosphorylation sites for CDKs, its phosphorylated form has molecular weight about 110 kDa, while the molecular weight of hypophosphorylated protein is only 105 kDa This small difference in molecular weight is enough to separate both forms by conventional SDS-PAGE electrophoresis.
CEM cells were cultured in Dulbeco's modified essential medium with 4.5 g dextrose/l, 10% of foetal calf serum, 2 mM glutamine, 100 U/ml penicillin and 100 μg/ml streptomycin with/without below indicated concentrations of betulkic acid (BA) or I.3. At selected time points, cells were harvested, washed in ice cold Hank's balanced salt solution and solubilized on ice using the SDS-PAGE sample buffer containing protease and phosphatase inhibitors (10 μg/ml of leupeptin, 10 μg/ml of aprotinin, 10 μg/ml of soybean trypsin inhibitor, 100 μmol of benzamide, 1 mM of sodium vanadate, 1 mM of NaF, 1 mM of phenylphosphate) and boiled immediately.
Total cellular proteins (100 μg/well) were separated on SDS-PAGE electrophoresis, blotted on polyvinyldifluoride membranes and total Rb protein, including proteolytic fragment(s) were detected using a pRb monoclonal antibody (Oncogene, Germany, Rb(AS5), Cat# OP66 Rev 2 Sep. 1996 EB, Clone LM95.1) and visualized by chemilumniuscence (ECL-Westeg Blotting System, Amersham). Details of the Western blot technique are described in Ausubel, F. M., Brent, R., Kingston, P E., Moore, D. D., Seidman, J. G., Smith, J. A., Struhl, K (Eds): Short Protocols-in Molecular Biology, 2nd edition, John Wiley & Sons, New York, Chichester, Brisbane, Toronto, Singapore, 1992, page 10–33–10–35.

[11] = system: BT549 human breast cancer, p53mut/mut; assay: MTT cytotoxicity assay, BT549; format: cell-based; conditions: 72 hours, read-out: TCS50
Excerpt: as §1, §2

[12] = system: MEL-3 human melanoma; assay: MTT cytotoxicity assay, MEL-3; format: cell-based; conditions: 72 hours, read-out: TCS50
Excerpt: as §1, §2

CC(=O)OC[C@@]1(C(=O)O)CC[C@]2(C)[C@H](CC[C@@H]3[C@@]4(C)CC[C@H](OC(C)=O)C(C)(C)[C@@H]4CC[C@]32C)C1=O [I.3, 3β,28-diacetoxy-18-oxo-19,20,21,29,30-pentanorlupan-22-oic acid]
IC50 [1]: 900 nM
IC50 [2]: 1000 nM
IC50 [3]: 1400 nM
IC50 ([4]; CEM cells, as stated in the histone acetylation study, read-out: IC50): 2000 nM
IC50 ([4]; CEM, MTT assay, 72 hours, read-out: TCS50): 1000 nM
IC50 [5]: 2100 nM
IC50 [6]: 5100 nM
IC50 [7]: 3300 nM
IC50 [8]: 1700 nM
IC50 [9]: 7200 nM
time to appearance of hypophosphorylated form of Rb ([10]; 7 μM): 2 h
time to appearance of hypophosphorylated form of Rb ([10]; 20 μM): 0.25 h
cleavage of Rb protein (42 kDa fragment, caspase activation) ([10]; Western blot): time and concentration dependent appearance of an immunoreactive fragment of Rb protein
dephosphorylation of Rb protein (shift 110 kDa to 105 kDa) ([10]; Western blot (FIG. 3)): rapidly dephosphorylated
IC50 [11]: 2000 nM
IC50 [12]: 1300 nM

— patent US7041701B2, “Triterpenoid derivatives” (Univerzita Palackeho V Olomouci, priority 2000, dated 2006)
